The values below come from patent US20030013764A1, “Use for a pyruvate dehydrogenase activator for the treatment of ischaemia in limbs” (priority 1995, published 2003).

The structures appear in SMILES notation.

The subject of one test is volunteers. The note with it: cited from earlier work.
The test system of another test is angina patients. The note with it: cited from earlier work.
Test [1] relates to contracting skeletal muscle of anaesthetised dogs. Put plainly: Muscle fatigue in contracting gracilis muscle of anaesthetised dogs. The note with it: following treatment with DCA (300 mg.kg−1 as sodium salt, infusion 45 min before contraction); 20 min stimulation at 3 Hz; fatigue=(peak tension—end tension)/peak tension. In kind it is in vivo, Beagle dogs. Here is the method: The invention will now be further described by reference to the accompanying, non-limiting, experimental methods. In the following expermimental methods we have used the PDH kinase inhibitor dichloroacetate to determine if inhibitors of PDH kinase can reduce the rate of fatigue in contracting skeletal muscle of anaesthetised dogs which has blood flow limited to the same extent as patients with intermittent claudication. Suitable doses of DCA include these in the range 30 to 300 mg.kg^−1. In the experimental methods which follow DCA was administered (at a dose of 300 mg.kg^−1) as the sodium salt of dichloroacetic acid.
Female Alderley Park Beagle dogs (12-18 kg) were pre-medicated with morphine (10 mg, i.m.) 30 minutes prior to induction of anaesthesia with sodium pentobarbitone (45 mg kg-1 i.v., Sagatal.). […] Rectal temperature was constantly monitored and maintained (range 36.2° C.-38.6° C.) with a homeothermic heating blanket (Harvard Instruments, Edenbridge. Kent. UK).
The left external jugular vein was cannulated for continuous administration of anaesthetic (sodium pentobarbitone 12 mg/ml at a rate of5 -6 ml/hour) using an infusion pump (injectomat S. Fresenius. Villiers. France). […] All pressures were measured using strain gauge manometers (PDCR 75. Druck Ltd. Barendeecht. Netherlands) attached to d.c. bridle amplifiers (Lectromed. MT8P. St. Peter. Jersey). […]

In a further test the test system is normal mice. Particulars: cited from earlier work.
The test system of a further test is gracilis muscle. Put plainly: Muscle metabolites in gracilis muscle biopsies of anaesthetised dogs. Particulars: for Ac.carn. (acetyl carnitine) / Free carnitine / Lactate / PCr (phosphocreatine): DCA treated. Also on record: Lactate / Ac.carn. (acetyl carnitine) / Free carnitine: unit not given here. The test is classed as in vivo, Beagle dogs. Here is the method: Animals were divided into DCA treated and vehicle (isotonic saline) treated groups. DCA or vehicle was given after completion of the surgery by a constant infusion. 45 minutes later the contraction was started. Muscle fatigue was measured in both normal and flow limited muscles. Arterial blood samples were taken from the brachial artery and venous blood samples were taken from each gracilis muscle at rest, during contraction and following recovery. The contraction period was 20 minutes of stimulation of 3 Hz. Blood samples (0.4 ml) being taken for blood gas analysis and analysed immediately. Parameters recorded were pH, pCO2. pO2. oxygen saturation and total Haemoglobin. Further samples (1.0 ml) were taken for analysis of lactate, glucose and non esterified fatty acid (NEFA) concentration.
Following resting blood samples and after drug/vehicle infusion a resting muscle biopsy (6 mm diameter Bergstrom needle. Stille, Sweden and 6 mm diameter Allendale needle, Edinburgh, Scotland), was taken from each muscle. After 20 minutes of stimulation the muscle was then freeze clamped, while still being stimulated, and a thin portion of muscle was excised and frozen in liquid nitrogen (The whole process took less than 6 seconds with the top layer of muscle being frozen within 1 second). The muscle samples were then stored in liquid nitrogen before a portion was freeze dried and analysed.
The muscle sample was divided into two portions, one for analysis of ATP, phosphocreatine (PCr), creatine (Cr) and intramuscular lactate (Harris. R et al., Scand. Journal Clin Lab Invest.. 33,109-120, 1974). The other portion of muscle was stored wet in liquid nitrogen. Briefly, the first portion of muscle was freeze dried, dissected free of visible connective tissue and blood and then powdered and was extracted in ice cold perchloric acid (0.5M) and neutralised with potassium bicarbonate (2.2M). Glycogen content was assayed using the method described by Harris et al. 1974 (see above).
Acetylcarnitine, free carnitine were assessed, in the freeze dried extract, by the method described by Cederblad et al; Anal. Biochem., 185, (1990), 274-278. PDH activity (rest & exercise, active and total) from a sample of wet tissue using the method of Constantin-Teodosiu D et al.. “A sensitive radioisotopic assay of pyruvate dehydrogenase complex in human muscle tissue”. Anal. Biochem.. Volume 198, p347-351. 1991. This method is also described by Dumitru Constantin-Teodosiu. Doctoral Thesis “Regulation of pyruvate dehydrgenase complex activity and acetyl group formation in skeletal muscle during exercise”. Stockholm 1992. from the Department of Clinical Chemistry, Karolinska Institute. Huddinge University Hospital. S-141 86 Huddinge Sweden.

For test [2], the system named is patients with class III heart failure. The note with it: human, in vivo; cited from earlier work.
[3] abbreviates: angina patients undergoing catheterisation.
[4] abbreviates: Normal flow muscle after 20 min stimulation.
Setting [5] is: Resricted flow muscle after 20 min stimulation.

For `O=C(O)C(Cl)Cl` [DCA, dichloroacetic acid], in the test on volunteers (volunteers during maximal and 50% maximal workload), the “reduction of lactate production” value is “up to 30%”. The “increase in maximal work capacity” value in the test with volunteers (volunteers) is reported as 10%. Also, in the test with angina patients (setting [3]), the “changes in heart rate or left ventricular inotropic state (LV dp/dtmax.)” value is “absence of changes” and the “increase in stroke volume” value was 13%. For the same compound, in the test on angina patients (angina patients, increased from 24%), the Myocardial efficiency was 32%. For the same compound, in test [1], the muscle fatigue was 25.0%. Further, in the test on normal mice, the “increase in treadmill exercise duration” value is reported as 20% and the oxidation of lactate result is “increased”. Also, in the test with gracilis muscle (DCA treated versus control), the “Changes in Pcr” value is listed as “reduced” and the Changes in lactate entry is recorded as “reduced”. In addition, in the test on gracilis muscle (setting [4]), the “Ac.carn. (acetyl carnitine)” value stood at 9.6 ± 3.2, the Free carnitine is given as 15.5 ± 2.5, the Lactate is recorded as 5.4 ± 1.6 and the “PCr (phosphocreatine)” value worked out at 44.7 ± 3.2. Besides, in the test on gracilis muscle (setting [5]), the “Ac.carn. (acetyl carnitine)” value is on record as 16.9 ± 2.6, the Free carnitine was found to be 9.6 ± 2.2, the Lactate worked out at 18.1 ± 4.0 and the “PCr (phosphocreatine)” value is listed as 38.9 ± 3.0. Further, in the test with gracilis muscle (Resting muscle), the “Ac.carn. (acetyl carnitine)” value was determined as 19.6 ± 1.0, the Free carnitine turned out to be 5.4 ± 1.6, the Lactate turned out to be 5.7 ± 1.4 and the “PCr (phosphocreatine)” value is given as 55.1 ± 2.5. For the same compound, in the test on gracilis muscle (at rest and during contraction (RF muscle), DCA treated group versus control), the Acetyl group availability entry is reported as “higher”. Further, in test [2], the “effects in patients with class III heart failure” value is “Beneficial effects”.
